Reference: US12221444B2, “5,6,7,7a-tetrahydrocyclopenta[f]pyrido[1,2-h][1,7]naphthyridin-11(4bH)-one compounds and methods of use” (GLAXOSMITHKLINE INTELLECTUAL, priority 2017, dated 2025)

Experiments:
[1] = HepAD38 cells cytotoxicity assay (CellTiter-Glo Luminescent Cell Viability Assay); assay type: cell-based; details: human, 7 days total treatment, read-out: Cell tox (EC50, ηM)
Protocol: (§1) Example 36 HepAD38 Cells—HBsAg ELISA and Cytotoxicity Assays
(§2) HepAD38 cells are maintained in collagen-coated flasks in cell culture medium (DMEM/F12 containing 10% fetal bovine serum (FBS), GlutaMax-1, penicillin/streptomycin, non-essential amino acids, Na pyruvate, 250 μg/mL geneticin, and 1 μg/mL doxycycline). Compound solutions are prepared in DMSO and compound are serially diluted for final concentrations of 4000, 1000, 250, 62.5, 15.6, 3.91, 0.977, 0.244, 0.061, and 0.015 ηM. The cells are then trypsinized and the cells are plate at 10,000 cells per well. Incubate plates are incubated at 37° C., 5% CO2 for 4 days. Media is replaced with new media with compound treatment. The plates are then incubated at 37° C., 5% CO2 for an additional 3 days for a total treatment time of 7 days. For antiviral response, HBsAg was measured using the HBsAg ELISA kit (International Immuno-diagnostics) with instructions provided. 100 uL of cell media samples was used for ELISA. The absorbance was read on the Spectramax® 384 plate reader (Molecular Devices) at 450 nm. For cell toxicity, the cells were used for CellTiter-Glo® Luminescent Cell Viability Assay reagent (Promega). The luminescence was read on Envision Multilabel Reader (Perkin Elmer). The data was analyzed compared to the DMSO control. % inhibition=(1−(unknown/high control))*100
(§3) The average % inhibition values from duplicate assay plates are then plotted in GraphPad Prism to determine one IC value: Four-parameter logistic curve with equation Y=Bottom+(Top-Bottom)/(1+10^((Log IC50−X)*HillSlope)) pIC50=[…]

HBs antigens (HBsAg) = assay: HepAD38 cells HBsAg ELISA; assay type: cell-based, Hepatitis B virus; details: read-out: HepAD38, HBsAg (EC50), 7 days total treatment, HBsAg ELISA of cell media
Protocol: as §1, §2, §3

COCCCOc1cc2c(nc1C1CC1)-c1cc(=O)c(C(=O)O)cn1C1C2CCC1(C)C (racemic) [Example 4, 2-Cyclopropyl-3-(3-methoxypropoxy)-7,7-dimethyl-11-oxo-4b,5,6,7,7a,11-hexahydrocyclopenta[f]pyrido[1,2-h][1,7]naphthyridine-10-carboxylic acid (racemic cis)]
EC50 at 7 days [1]: > 4000 nM | EC50 (HBs antigens (HBsAg)): < 1 nM

CC(C)(C)C1Cc2cc(OCC3CC3)c(Cl)nc2-c2cc(=O)c(C(=O)O)cn21 (racemic) [Example 30, 6-(tert-Butyl)-2-chloro-3-(cyclopropylmethoxy)-10-oxo-6,10-dihydro-5H-pyrido[1,2-h][1,7]naphthyridine-9-carboxylic acid]
EC50 at 7 days [1]: > 4000 nM | EC50 (HBs antigens (HBsAg)): 1 to 10 nM

COCCCOc1cc2c(nc1Cl)-c1cc(=O)c(C(=O)O)cn1C1C2CCC1(C)C (racemic) [Example 34, 2-Chloro-3-(3-methoxypropoxy)-7,7-dimethyl-11-oxo-4b,5,6,7,7a,11-hexahydrocyclopenta[f]pyrido[1,2-h][1,7]naphthyridine-10-carboxylic acid]
EC50 at 7 days [1]: > 4000 nM | EC50 (HBs antigens (HBsAg)): < 1 nM

COCCCOc1cc2c(nc1Cl)-c1cc(=O)c(C(=O)O)cn1[C@H]1[C@@H]2CCC1(C)C (single isomer, unassigned) [Example 1]
EC50 at 7 days [1]: > 4000 nM | EC50 (HBs antigens (HBsAg)): < 1 nM

COCCCOc1cc2c(nc1Cl)-c1cc(=O)c(C(=O)O)cn1[C@@H]1[C@H]2CCC1(C)C (single isomer, unassigned) [Example 2]
EC50 at 7 days [1]: > 4000 nM | EC50 (HBs antigens (HBsAg)): 10 to 100 nM

COCCCOc1cc2c(nc1C1CC1)-c1cc(=O)c(C(=O)O)cn1[C@@H]1C(C)(C)CCC21O (single isomer, unassigned) [Example 5]
EC50 at 7 days [1]: > 4000 nM | EC50 (HBs antigens (HBsAg)): 1 to 10 nM

CC(C)(C)C1Cc2cc(OCC3CC3)c(Cl)nc2-c2cc(=O)c(C(=O)O)cn21 (single isomer, unassigned; isomer 2) [Example 30-B, 6-(tert-Butyl)-2-chloro-3-(cyclopropylmethoxy)-10-oxo-6,10-dihydro-5H-pyrido[1,2-h][1,7]naphthyridine-9-carboxylic acid (isomer 2)]
EC50 at 7 days [1]: > 4000 nM | EC50 (HBs antigens (HBsAg)): > 100 nM

CC(C)C1(C)Cc2cc(OCC3CC3)c(Cl)nc2-c2cc(=O)c(C(=O)O)cn21 (single isomer, unassigned; isomer-1) [Example 26, (2-Chloro-3-(cyclopropylmethoxy)-6-isopropyl-6-methyl-10-oxo-5,10-dihydro-6H-pyrido[1,2-h][1,7]naphthyridine-9-carboxylic acid-Isomer-1]
EC50 at 7 days [1]: > 4000 nM | EC50 (HBs antigens (HBsAg)): 1 to 10 nM

COCCCOc1cc2c(nc1C1CC1)-c1cc(=O)c(C(=O)O)cn1C(C)(C(C)C)C2 (single isomer, unassigned; isomer-1) [Example 28, 2-Cyclopropyl-6-isopropyl-3-(3-methoxypropoxy)-6-methyl-10-oxo-5,10-dihydro-6H-pyrido[1,2-h][1,7]naphthyridine-9-carboxylic acid-Isomer-1]
EC50 at 7 days [1]: > 4000 nM | EC50 (HBs antigens (HBsAg)): < 1 nM

COCCCOc1cc2c(nc1C1CC1)-c1cc(=O)c(C(=O)O)cn1[C@H]1[C@@H]2CCC1(C)C [Example 3, (4bR,7aS)-2-Cyclopropyl-3-(3-methoxypropoxy)-7,7-dimethyl-11-oxo-4b,5,6,7,7a,11-hexahydrocyclopenta[f]pyrido[1,2-h][1,7]naphthyridine-10-carboxylic acid]
EC50 at 7 days [1]: > 4000 nM | EC50 (HBs antigens (HBsAg)): < 1 nM

COCCCOc1cc2c(nc1Cl)-c1cc(=O)c(C(=O)O)cn1[C@@H]1C(C)(C)CCC21O (stereo partly drawn) [Example 6, (7aR)-2-Chloro-4b-hydroxy-3-(3-methoxypropoxy)-7,7-dimethyl-11-oxo-4b,5,6,7,7a,11-hexahydrocyclopenta[f]pyrido[1,2-h][1,7]naphthyridine-10-carboxylic acid]
EC50 at 7 days [1]: > 4000 nM | EC50 (HBs antigens (HBsAg)): 10 to 100 nM

COCCCOc1cc2c(nc1Cl)-c1cc(=O)c(C(=O)O)cn1[C@@H]1C(C)(C)CCC21OC (stereo partly drawn) [Example 7, (7aR)-2-Chloro-4b-methoxy-3-(3-methoxypropoxy)-7,7-dimethyl-11-oxo-4b,5,6,7,7a,11-hexahydrocyclopenta[f]pyrido[1,2-h][1,7]naphthyridine-10-carboxylic acid]
EC50 at 7 days [1]: > 4000 nM | EC50 (HBs antigens (HBsAg)): 10 to 100 nM

COCCCOc1cc2c(nc1O)-c1cc(=O)c(C(=O)O)cn1[C@H]1[C@@H]2CCC1(C)C [Example 8, (4bR,7aS)-2-Hydroxy-3-(3-methoxypropoxy)-7,7-dimethyl-11-oxo-4b,5,6,7,7a,11-hexahydrocyclopenta[f]pyrido[1,2-h][1,7]naphthyridine-10-carboxylic acid]
EC50 at 7 days [1]: > 4000 nM | EC50 (HBs antigens (HBsAg)): > 100 nM

CC1(C)CC[C@@H]2c3cc(O)c(Cl)nc3-c3cc(=O)c(C(=O)O)cn3[C@@H]21 [Example 9, (4bR,7aS)-2-Chloro-3-hydroxy-7,7-dimethyl-11-oxo-4b,5,6,7,7a,11-hexahydrocyclopenta[f]pyrido[1,2-h][1,7]naphthyridine-10-carboxylic acid]
EC50 at 7 days [1]: > 4000 nM | EC50 (HBs antigens (HBsAg)): > 100 nM

COCCCOc1cc2c(nc1Cl)-c1cc(=O)c(C(=O)O)cn1C(C(C)(C)CO)C2 (centres unmarked) [Example 10, 2-Chloro-6-(1-hydroxy-2-methylpropan-2-yl)-3-(3-methoxypropoxy)-10-oxo-6,10-dihydro-5H-pyrido[1,2-h][1,7]naphthyridine-9-carboxylic acid]
EC50 at 7 days [1]: > 4000 nM | EC50 (HBs antigens (HBsAg)): 1 to 10 nM

COCCCOc1cc2c(nc1Cl)-c1cc(=O)c(C(=O)O)cn1[C@H](C(C)(C)C)C2 [Example 11, (S)-6-(tert-Butyl)-2-chloro-3-(3-methoxypropoxy)-10-oxo-6,10-dihydro-5H-pyrido[1,2-h][1,7]naphthyridine-9-carboxylic acid]
EC50 at 7 days [1]: > 4000 nM | EC50 (HBs antigens (HBsAg)): < 1 nM

Cc1nc2c(cc1OCC1CC1)C[C@@H](C(C)(C)C)n1cc(C(=O)O)c(=O)cc1-2 [Example 12, (S)-6-(tert-Butyl)-3-(cyclopropylmethoxy)-2-methyl-10-oxo-6,10-dihydro-5H-pyrido[1,2-h][1,7]naphthyridine-9-carboxylic acid]
EC50 at 7 days [1]: > 4000 nM | EC50 (HBs antigens (HBsAg)): < 1 nM

COCCCOc1cc2c(nc1C)-c1cc(=O)c(C(=O)O)cn1[C@H](C(C)(C)C)C2 [Example 13, (S)-6-(tert-Butyl)-3-(3-methoxypropoxy)-2-methyl-10-oxo-6,10-dihydro-5H-pyrido[1,2-h][1,7]naphthyridine-9-carboxylic acid]
EC50 at 7 days [1]: > 4000 nM | EC50 (HBs antigens (HBsAg)): < 1 nM

CC(C)(C)[C@@H]1Cc2cc(OCC3CC3)c(C3CC3)nc2-c2cc(=O)c(C(=O)O)cn21 [Example 14, (S)-6-(tert-Butyl)-2-cyclopropyl-3-(cyclopropylmethoxy)-10-oxo-6,10-dihydro-5H-pyrido[1,2-h][1,7]naphthyridine-9-carboxylic acid]
EC50 at 7 days [1]: > 4000 nM | EC50 (HBs antigens (HBsAg)): < 1 nM

COCCCOc1cc2c(nc1C1CC1)-c1cc(=O)c(C(=O)O)cn1[C@H](C(C)(C)C)C2 [Example 15, (S)-6-(tert-Butyl)-2-cyclopropyl-3-(3-methoxypropoxy)-10-oxo-6,10-dihydro-5H-pyrido[1,2-h][1,7]naphthyridine-9-carboxylic acid]
EC50 at 7 days [1]: > 4000 nM | EC50 (HBs antigens (HBsAg)): < 1 nM

COc1nc2c(cc1OCC1CC1)C[C@H](C(C)(C)C)n1cc(C(=O)O)c(=O)cc1-2 [Example 16, (R)-6-(tert-Butyl)-3-(cyclopropylmethoxy)-2-methoxy-10-oxo-6,10-dihydro-5H-pyrido[1,2-h][1,7]naphthyridine-9-carboxylic acid]
EC50 at 7 days [1]: > 4000 nM | EC50 (HBs antigens (HBsAg)): > 100 nM

COc1nc2c(cc1OCC1CC1)C[C@@H](C(C)(C)C)n1cc(C(=O)O)c(=O)cc1-2 [Example 17, (S)-6-(tert-Butyl)-3-(cyclopropylmethoxy)-2-methoxy-10-oxo-6,10-dihydro-5H-pyrido[1,2-h][1,7]naphthyridine-9-carboxylic acid]
EC50 at 7 days [1]: > 4000 nM | EC50 (HBs antigens (HBsAg)): < 1 nM

CC(C)(C)[C@@H]1Cc2cc(OCC3CC3)c(O)nc2-c2cc(=O)c(C(=O)O)cn21 [Example 18, (S)-6-(tert-Butyl)-3-(cyclopropylmethoxy)-2-hydroxy-10-oxo-6,10-dihydro-5H-pyrido[1,2-h][1,7]naphthyridine-9-carboxylic acid]
EC50 at 7 days [1]: > 4000 nM | EC50 (HBs antigens (HBsAg)): > 100 nM

COCCCOc1cc2c(nc1OC)-c1cc(=O)c(C(=O)O)cn1[C@H](C(C)(C)C)C2 [Example 19, (S)-6-(tert-Butyl)-2-methoxy-3-(3-methoxypropoxy)-10-oxo-6,10-dihydro-5H-pyrido[1,2-h][1,7]naphthyridine-9-carboxylic acid]
EC50 at 7 days [1]: > 4000 nM | EC50 (HBs antigens (HBsAg)): < 1 nM

COCCCOc1cc2c(nc1O)-c1cc(=O)c(C(=O)O)cn1[C@H](C(C)(C)C)C2 [Example 20, (S)-6-(tert-Butyl)-2-hydroxy-3-(3-methoxypropoxy)-10-oxo-6,10-dihydro-5H-pyrido[1,2-h][1,7]naphthyridine-9-carboxylic acid]
EC50 at 7 days [1]: > 4000 nM | EC50 (HBs antigens (HBsAg)): > 100 nM
